{
  "source": "patent US7060486B2",
  "about": "“Inhibition of sulfate-reducing-bacteria-mediated degradation using bacteria which secrete antimicrobials” (priority 1998, dated 2006)",
  "key": {"[1]": {"tested_on": "D. gigas (ATCC 19364)", "assay": "SRB inhibitory assay: viability after one-hour exposure, MPN technique", "format": "cell-based", "experimental": "(§1) D. vulgaris (ATCC 29579) and D. gigas (ATCC 19364) were obtained from the American Type Culture Collection and cultivated in 15 mL screwcap tubes with 10 mL of modified Baar's medium (ATCC medium 1249) supplemented with 100 μL each of the oxygen-scavengers 4% sodium sulfide and Oxyrase (Oxyrase Inc., Mansfeld, Ohio). Initial cultures were grown from −85° C. glycerol stocks; all subsequent cultures were grown with a 3% inoculum from the initial culture maintained at 30° C. without shaking. […] SRB were also cultured periodically in the presence of 0.1% ferrous ammonium sulfate, and the presence of these sulfate-reducers was confirmed by the detection of black iron sulfide in the culture tubes. The desulfoviridin assay was also performed after each MPN assay to confirm the presence of D. vulgaris or D. gigas by its red color under UV light due to the release of the chromophore of the pignment desulfoviridin. (Postgate, 1984).\n(§2) For determining the viability indices (Romeo, et al., 1988) of SRB, a late-exponential phase culture (O.D600 0.16 to 0.19 which corresponded to an initial cell number of 5–9×10^4 cells/mL) was exposed to various concentrations of antimicrobials for 1 hour at 30° C. One mL of cells was harvested, washed once in fresh modified Baar's medium to remove cellular debris, and resuspended in 1 mL of fresh modified Baar's medium supplemented with 10 μL each of Oxyrase (Oxyrase Inc., Mansfeld, Ohio) and 4% sodium sulphide. Aliquots of 450 μL were dispensed in 500 μL sterile eppendorf tubes and appropriate amounts of antimicrobials added and incubated at 30° C. The effectiveness of treatment was determined by the multiple-tube most-probable-number (MPN) fermentation technique. (Anonymous. Multiple-tube fermentation technique for members of the coliform group, pp. 9–45 to 9–51. In A. E. Greenberg, L. S. Clesceri, and A. D. Eaton (eds.), Standard Methods for the Examination of Water and Wastewater, 18 ed. American Public Health Association, American Water Works Association, and Water Pollution Control Federation, New York (1992)) (hereafter, Greenberg, 1992).\n(§3) The MPN test for enumerating SRB was performed in three 12 mL tubes with a 1000 μL inoculum of SRB, three 12 mL tubes with a 500 μL inoculum, and three 12 mL tubes with a 100 μL inoculum. All nine tubes contained a final volume of 10 mL of modified Baar's medium supplemented with 100 μL each of 4% sodium sulfide and Oxyrase (Oxyrase Inc., Mansfeld, Ohio). The tubes were monitored for 72 hours to determine the number of tubes that were positive for growth. Growth was determined by the increase in culture turbidity, and the MPN index/mL was calculated using the Thomas formula. (Greenberg 1992)."}, "[2]": {"tested_on": "D. vulgaris (ATCC 29579)", "assay": "SRB inhibitory assay: viability after one-hour exposure, MPN technique", "format": "cell-based", "experimental": "as §1, §2, §3"}, "[3]": {"tested_on": "SRB (D. vulgaris) on 304 stainless steel", "assay": "Continuous reactor with 304 stainless steel and SRB, electrochemical impedance spectroscopy", "conditions": "100 μg/mL added to P. fragi K biofilm 24 hours before D. vulgaris", "experimental": "Batch culture corrosion experiments using SAE 1018 mild steel coupons (2.5 cm diameter, 1.2 mm thick) were performed in triplicates in 250 mL Erlenmeyer flasks at 30° C. without shaking as described previously (Jayaraman et al., 1997a). A continuous reactor (Jayaraman et al., 1997c) was also used to develop biofilms on 304 stainless steel and monitor corrosion using electrochemical impedance spectroscopy (EIS) in a minimum of two independent reactors using a Solarton-Schlumberger electrochemical measurement unit (SI 1280, Schlumberger Technical Instruments Division, San Jose, Calif.) interfaced to a Macintosh computer (PowerMac 7100/80, Apple Computers, Cupertino, Calif.) running EISIS electrochemical experimentation software (University of California, Irvine) (similar commercial software, THALES, can also be used). The open circuit potential (OCP) was measured as the potential between the metal specimen and a Ag/AgCl reference electrode, and the polarization resistance (Rp) was determined as the low-frequency value of the impedance (where the imaginary part of the impedance was zero or negligible). Continuous culture corrosion rates were estimated as the inverse of the polarization resistance (Macdonald, D. D. and M. C. H. McCubre, Applications of impedance spectroscopy, p. 262–267. In J. R. Macdonald (ed.), Impedance spectroscopy: Emphasizing solid materials and systems, John Wiley & Sons, New York (1987); Stem, M., Journal of Electrochemical Society, 105(11):638–647 (1958)).\nA continuous reactor was used to develop biofilms on metal surfaces as previously described (Jayaraman et al., 1997c). Electrochemical impedance spectroscopy (EIS) was used to obtain impedance data in at least duplicate experiments using a Solarton-Schlumberger electrochemical measurement unit (SI 1280, Schlumberger Technical Instruments Division, San Jose, Calif.) interfaced to a Macintosh computer (PowerMac 7100/80, Apple Computers, Cupertino, Calif.) running EISIS electrochemical experimentation software (University of California, Irvine) (THALES, a similar commercial software, can also be used). The open-circuit potential (OCP) was measured as the potential between the metal specimen and the reference electrode (Ag/AgCl), and the polarization resistance was determined as the dc limit of the impedance using the ANALEIS software developed by Mansfeld et al. (ASTM Special Technical Protocol 1154:186 (1992)). […]"}, "[4]": {"tested_on": "SRB (D. vulgaris) on SAE 1018 mild steel", "assay": "Continuous reactor with SAE 1018 mild steel and SRB, electrochemical impedance spectroscopy", "source_text": "A continuous reactor was used to develop biofilms on metal surfaces as previously described (Jayaraman et al., 1997c). Electrochemical impedance spectroscopy (EIS) was used to obtain impedance data in at least duplicate experiments using a Solarton-Schlumberger electrochemical measurement unit (SI 1280, Schlumberger Technical Instruments Division, San Jose, Calif.) interfaced to a Macintosh computer (PowerMac 7100/80, Apple Computers, Cupertino, Calif.) running EISIS electrochemical experimentation software (University of California, Irvine) (THALES, a similar commercial software, can also be used). The open-circuit potential (OCP) was measured as the potential between the metal specimen and the reference electrode (Ag/AgCl), and the polarization resistance was determined as the dc limit of the impedance using the ANALEIS software developed by Mansfeld et al. (ASTM Special Technical Protocol 1154:186 (1992)). Continuous culture corrosion rates were estimated from the experimental polarization resistance Rp based on the Stern-Geary equation Rp=B/Icorr, where B is a parameter depending on the Tafel slopes and icorr is the corrosion current density which can be converted into a corrosion rate using Faraday's law (Mansfeld, F., The polarization resistance technique for measuring corrosion currents, In Fontana, M. G., Staehle, R. W. (ed.), Advances in Corrosion Science and Technology, Plenum Press, New York (1976)).\nA 3% (vol/vol) SRB inoculum (culture age 24–48 hours) was added to the reactor after 3 to 5 days of aerobic biofilm development. […] All antimicrobials were simultaneously added to the nutrient feed and the reactor at appropriate concentrations."}, "[5]": {"tested_on": "P. fragi K", "assay": "Growth of P. fragi K in overnight suspension cultures with antimicrobials", "format": "cell-based", "conditions": "100 μg/mL, overnight suspension culture"}, "[6]": {"tested_on": "Gram-negative bacteria", "conditions": "cited from earlier work"}, "[7]": {"tested_on": "E. coli BK6", "assay": "Antimicrobial activity of concentrated culture supernatants in suspension", "format": "cell-based", "conditions": "buffer + kanamycin 100 μg/mL", "experimental": "B. subtilis BE1500 containing the plasmid pBE92-based constructs expressing the antimicrobial peptide genes was grown in 25 mL of LB medium to late-exponential phase (O.D600=0.70–1.0) at 37° C. The cells were collected by centrifugation at 10,000×g for 10 mins at 4° C., and the supernatant was concentrated 25-fold using a SpeedVac concentrator (Model 200H, Savant Instruments Inc., Holbrook, N.Y.).\nExpression of indolicidin and bactenecin in Bacillus was determined in duplicates by exposing E. coli BK6 in suspension to concentrated culture supernatants. E. coli BK6 was grown to an O.D600 of 0.20–0.25, pelleted at room temperature, and resuspended in different volumes (50 or 100 μL) of the concentrated supernatant. The cell suspension was incubated at 30° C. for 1 hour without aeration, and appropriate dilutions were plated on LB agar plates to determine the antimicrobial activity of the supernatant."}, "[8]": {"tested_on": "wild-type P. fragi", "assay": "Live/Dead stain control visualized with CSLM", "format": "cell-based", "conditions": "200 μg ml^−1 added to 12-hour culture, visualized after 48 hours", "quoted_text": "Cells and polysaccharide were stained for 30 min simultaneously in 4 ml of staining solution using the Live/Dead Baclit bacteria viability assay kit protocol (1.125 μl ml^−1 of each stain component, Molecular Probes (Eugene, Oreg.)) and calcofluor (300 μl ml^−1, Sigma (St. Louis, Mo.), Stewart et al. 1995). The live/dead viability kit distinguishes live and dead cells based on membrane integrity; live cells with intact membranes stain green, and dead cells with compromised membranes stain red.\nAs a control experiment to verify that the Live/Dead stain can be used to quantify populations with live and dead cells, 200 μg ml^−1 of kanamycin was added to a 12-hour wild-type P. fragi culture and visualized with CSLM after 48 hours."}, "[9]": {"tested_on": "B. polymyxa 10401", "assay": "Susceptibility of host strains to purified antimicrobials (plate counts)", "format": "cell-based", "conditions": "one hour exposure at 30° C.", "experimental": "(§4) To determine the susceptibility of the hosts B. subtilis BE1500 and B. polymyxa to the expressed antimicrobials, these strains were grown from a single colony in 25 mL of LB medium with shaking at 37° C. to an O.D600 of 0.40–0.45. One mL aliquots were collected, washed with fresh LB medium and resuspended in 100 μL fresh LB medium in sterile eppendorf tubes. The antimicrobials indolicidin and bactenecin were added (50–100 μg/mL) and the tubes were incubated at 30° C. for one hour without shaking. Appropriate dilutions were spread on LB agar plates and incubated overnight at 37° C. to determine the extent of survival. The results were confirmed by performing two independent experiments."}, "[10]": {"tested_on": "B. subtilis BE1500", "assay": "Susceptibility of host strains to purified antimicrobials (plate counts)", "format": "cell-based", "conditions": "one hour exposure at 30° C.", "experimental": "as §4"}, "[11]": {"tested_on": "B. subtilis WB600", "assay": "Susceptibility of host strains to purified antimicrobials (plate counts)", "format": "cell-based", "conditions": "one hour exposure at 30° C."}, "[12]": {"tested_on": "Escherichia coli", "conditions": "5–25 μg/mL; cited from earlier work"}, "[13]": {"tested_on": "Staphylococcus aureus", "conditions": "5–25 μg/mL; cited from earlier work"}},
  "note": "Square brackets hold non-standard residues; d marks the D form. Ends that are not written are not given here. Peptide text beside a SMILES is read from it. Orn = NCCC[C@H](N)C(=O)O",
  "data": [
    {"molecule": "CC(C)C[C@@H]1NC(=O)[C@H](CCCN)NC(=O)[C@H](C(C)C)NC(=O)[C@@H]2CCCN2C(=O)[C@@H](Cc2ccccc2)NC(=O)[C@H](CC(C)C)NC(=O)[C@H](CCCN)NC(=O)[C@H](C(C)C)NC(=O)[C@@H]2CCCN2C(=O)[C@@H](Cc2ccccc2)NC1=O", "note": "[gramicidin S] (cyclo(V[Orn]L[dF]PV[Orn]L[dF]P))", "values": [
      {"measurement": "reduction of viability", "setting": "[1]; D. gigas, 1 h, 25 μg/mL", "value": "92–96%"},
      {"measurement": "concentration with inhibitory effect", "setting": "[1]; this study", "value": "50 to 100", "unit": "µg/mL"},
      {"measurement": "reduction of viability", "setting": "[2]; D. vulgaris, 1 h, 100 μg/mL", "value": 93, "unit": "%"},
      {"measurement": "concentration with inhibitory effect", "setting": "[2]; this study", "value": "50 to 100", "unit": "µg/mL"},
      {"measurement": "effect on D. vulgaris, in words", "setting": "[3]", "value": "completely effective in inhibiting the growth of D. vulgaris"},
      {"measurement": "effect on D. vulgaris, in words", "setting": "[4]; 100 μg/mL added to P. fragi K biofilm 24 hours before D. vulgaris", "value": "the onset of D. vulgaris-induced corrosion of mild steel was delayed"},
      {"measurement": "time after D. vulgaris addition without change / increase in Rp", "setting": "[4]; 100 μg/mL added to P. fragi K biofilm before D. vulgaris", "value": "≥ 80", "unit": "h"},
      {"measurement": "growth of P. fragi K, in words", "setting": "[5]", "value": "grew to saturation"},
      {"measurement": "concentration that completely inhibits growth", "setting": "[6]", "value": "3 to 12.5", "unit": "µg/mL"}
    ]},
    {"molecule": "NC[C@H]1O[C@H](O[C@H]2[C@H](O)[C@@H](O[C@H]3O[C@H](CO)[C@@H](O)[C@H](N)[C@H]3O)[C@H](N)C[C@@H]2N)[C@H](O)[C@@H](O)[C@@H]1O", "note": "[kanamycin]", "values": [
      {"measurement": "inhibition at 100 µg/mL", "setting": "[7]; Escherichia coli, BK6", "value": 100, "unit": "%"},
      {"measurement": "E. coli BK6 CFU/mL", "setting": "[7]", "value": "4 × 10^3 CFU/mL"},
      {"measurement": "red (dead) share of the sample", "setting": "[8]", "value": "approximately 75%"}
    ]},
    {"molecule": "ILPWKWPWWWPWRR [Ind-OH]", "values": [
      {"measurement": "fold less effective than the amidated form of indolicidin", "setting": "[1]; 25 μg/mL", "value": 10, "unit": "fold"},
      {"measurement": "fold less effective than the amidated form of indolicidin", "setting": "[2]; 25 μg/mL", "value": 174, "unit": "fold"},
      {"measurement": "Fold-reduction in cell number", "setting": "[9]; 50 μg/mL", "value": 4},
      {"measurement": "Fold-reduction in cell number", "setting": "[9]; 100 μg/mL", "value": 4},
      {"measurement": "Fold-reduction in cell number", "setting": "[10]; 50 μg/mL", "value": 6000},
      {"measurement": "Fold-reduction in cell number", "setting": "[10]; 100 μg/mL", "value": "10,000"},
      {"measurement": "Fold-reduction in cell number", "setting": "[11]; 50 μg/mL", "value": "20,000"},
      {"measurement": "Fold-reduction in cell number", "setting": "[11]; 100 μg/mL", "value": "40,000"},
      {"measurement": "inhibition", "setting": "[12]", "value": 99.9, "unit": "%"},
      {"measurement": "inhibition", "setting": "[13]", "value": 99.9, "unit": "%"}
    ]}
  ]
}
